According to patent US20100287638A1, “NEURAL TUMOR STEM CELLS AND METHODS OF USE THEREOF” (The Hospital for Sick Children, priority 2007, published 2010):
Entries after “also recorded” stand apart in the source; their conditions may differ. Where two headings read alike, the source gives them in different places.

Experiments:
[1] = test system: GNS cell lines G144, G166, and G179; format: cell-based; conditions: 10 μM, two days
tumor lines (GNS cells) = experiment: Validation with compounds from an independent supplier, tumor lines; format: cell-based, human; conditions: 10 μM, 2 days
Experimental: (§1) Here, selected compounds from an independent source were applied (2 μM for Tegaserod, 10 μM for all others) to G179 (left), HS 27 (middle) or fetal NS (right).
(§2) We carried out two fully independent screens using G144, G166, and G179, as well as a human fibroblast cell line (HS27). […] We chose Glioma NS cell lines to validate several of the drugs, from each class, using compounds obtained from an independent supplier (FIG. 18D).
(§3) For the drug screen we used the IncucyteHD system (Essen Instruments, USA), which enables simultaneously monitoring of six 96-well microplates. GNS cell lines were plated at 10-20% confluence on 96 well plates (Iwaki) coated with laminin (10 μg/ml for 3 hours). The NCC NIH Chemical Compounds library (http://www.nihclinicalcollection.com/) was added to the plates at a final concentration of 10 μM per compound per well (DMSO 0.1%). Images were captured before and after the addition of the library every half hour for 2.5 days in an automated manner using the Incucyte HD device (Essen Instruments, USA). Relative increase in cell number values were generated for every well using confluence readings obtained at each time-point relative to the starting confluence. For every cell line (G144, G166, G179, and HS27) two independent screens were run. HS27 is a human foreskin fibroblast line (American Type Culture Collection). […] Every well associated with a reduction in cell number within the 5* percentile in at least 3 independent screens was visually inspected.

fetal NS cells = experiment: Validation with compounds from an independent supplier, fetal NS cells; format: cell-based, human; conditions: 10 μM, 2 days
Experimental: as §1, §2, §3

fibroblast cells (HS27) = experiment: Validation with compounds from an independent supplier, fibroblasts; format: cell-based, human; conditions: 10 μM, 2 days
Experimental: as §1, §2, §3

GNS cells [2] = experiment: TUNEL and caspase staining of treated cells; format: cell-based, human; conditions: treated versus untreated cells
Source text: FIG. 18E is a set of photomicrographs of cells either untreated or treated with indatraline and stained for TUNEL and caspase.

[3] = test system: human fibroblast cell line (HS27); experiment: Live-cell imaging (IncucyteHD) chemical screen on fibroblast line; format: cell-based; conditions: 10 μM, two days
Experimental: as §2, §3

GNS cells [4] = experiment: GNS cell expansion culture; format: cell-based, human
Experimental: GNS cell expansion was carried out as described previously for human foetal NS cells (Sun et al., (2008) Mol Cell Neurosci 38, 245-258). Tissue culture flasks were pre-treated with Laminin, 10 μg/ml in PBS, (Sigma), for at least 3 hrs at 37° C. […] GNS cells were routinely grown to confluence, dissociated using Accutase (Sigma), and then split 1:3 to 1:5. Media was replaced with fresh media every 3-5 days. For all routine analysis we typically worked with cells between passage 10 and 20. For freezing, we re-suspended cell pellets in 0.5 ml of 10% DMSO/Media and placed in a −80° C. freezer. For long-term storage, liquid nitrogen was used. […] Fetal NS cells CB541 and CB660 are described by Sun et al., 2008, supra), while hf240, hf286, and hf289 (used in the microarrays) were isolated using similar techniques.

G179 cells = experiment: Astrocyte differentiation on BMP-4 exposure, G179; format: cell-based, human; conditions: BMP-4 10 ng/ml, 7 days
Experimental: (§4) To determine whether GNS cells could respond to inductive signals and generate astrocytes, we exposed cells to BMP-4 or serum. […] This response is similar to that of human fetal NS cells (Sun et al., (2008) Mol Cell Neurosci 38, 245-258). Similar results were seen using serum treatment. […] Thus, while GNS cells retain a capacity to differentiate, the efficiency and lineage choice vary dramatically between each line.
(§5) All differentiation was carried out on laminin-coated plastic, either in 4-well plates (˜0.5-1×10^5 cells/well) (Nunc), or for time-lapse movies using 24-well Imagelock microplates (Essen Instruments). For oligodendrocytes and neuronal differentiation we used the same basal media but lacking EGF or FGF-2 (i.e., growth factor withdrawal). For astrocyte differentiation, we supplemented basal media with either BMP at 10 ng/ml (R and D systems), or 1% serum (Sigma). In each case, cells were washed twice with PBS or minimal media before adding the final differentiation media. Samples were processed for immunocytochemistry, typically 7-10 days later.
(§6) Cells w ere fixed in 4% PFA for 10 min and then washed with PBS+0.1% TritonX-100 (PBST). Blocking was carried out using 1% goat serum for 30 mins. […] Images were acquired using a Leica DMI400B inverted fluorescence microscope linked to a DFC340FX camera.

G144 cells = experiment: Astrocyte differentiation on BMP-4 exposure, G144; format: cell-based, human; conditions: BMP-4 10 ng/ml, 7 days
Experimental: as §4, §5, §6

G166 cells = experiment: Astrocyte differentiation on BMP-4 exposure, G166; format: cell-based, human; conditions: BMP-4 treatment
Experimental: as §4, §5, §6

Molecule	killing of / effect on all GNS cell lines [1]	cell death in tumor lines (tumor lines (GNS cells))	cell death in fetal NS cells (fetal NS cells)	effect on fibroblast cells (fibroblast cells (HS27))	other results
c1ccc2c(c1)Nc1ccccc1S2 [10H-phenothiazine]	killed all GNS cell lines	–	–	–	–
CN1CCN(c2nc3cc(C(F)(F)F)ccc3n3cccc23)CC1.O=C(O)/C=C\C(=O)O.O=C(O)/C=C\C(=O)O [CGS 12066B]	killed all GNS cell lines	–	–	–	–
C[C@@H]1CN(CCCn2c3ccccc3c3ccccc32)C[C@H](C)N1 [Rimcazole]	killed all GNS cell lines	cell death	cell death	less striking or no effect	–
CN1CCN(CCCN2c3ccccc3Sc3ccc(C(F)(F)F)cc32)CC1 [Trifluoperazine]	killed all GNS cell lines	–	–	–	–
CNC1CC(c2ccc(Cl)c(Cl)c2)c2ccccc21 (stereo not drawn) [indatraline]	killed all GNS cell lines	cell death	cell death	less striking or no effect	killing of / effect on all GNS cell lines ([1]; listed as Indatraline): affected all GNS cells; apoptotic cell death (TUNEL and caspase staining) (GNS cells [2]): dying by an apoptotic pathway; also recorded: increase in TUNEL and caspase staining; effect on fibroblasts [3]: no effect
Fc1ccc([C@@H]2CCNC[C@H]2COc2ccc3c(c2)OCO3)cc1 [paroxetine]	killed all GNS cell lines	–	–	–	killing of / effect on all GNS cell lines ([1]; listed as Paroxetine): affected all GNS cells; effect on fibroblasts [3]: no effect
CN[C@H]1CC[C@@H](c2ccc(Cl)c(Cl)c2)c2ccccc21 [sertraline]	–	cell death	cell death	less striking or no effect	–
[H]/N=C(/NCCCCC)N/N=C/c1c[nH]c2ccc(OC)cc12 [tegaserod]	killed all GNS cell lines	–	–	–	–
LIF: the cytokine LIF (leukemia inhibitory factor)	–	–	–	–	effect on the cells in expansion culture (GNS cells [4]): no apparent effect
BMP-4: inductive signal added to basal media for astrocyte differentiation (R and D systems) (protein, UniProt P12644 293-408, looked up) Bone morphogenetic protein 4: SPKHHSQRARKKNKNCRRHSLYVDFSDVGWNDWIVAPPGYQAFYCHGDCPFPLADHLNSTNHAIVQTLVNSVNSSIPKACCVPTELSAISMLYLDEYDKVVLKNYQEMVVEGCGCR	–	–	–	–	differentiation into GFAP+ cells (G179 cells): majority of cells express high levels of GFAP; also recorded: efficiently differentiate into GFAP^+ cells; differentiation into GFAP+ cells (G179 cells; listed as BMP): expressed high levels of GFAP; differentiation into GFAP+ cells (G144 cells): majority of cells express high levels of GFAP; also recorded: efficiently differentiate into GFAP^+ cells; differentiation into GFAP+ cells (G166 cells): did differentiate; differentiation into GFAP+ cells (G166 cells; listed as BMP): could only be observed at low frequency
